Test: xn = mol fraction of the nth substance listed
Settings: 101 kPa, Liquid; for viscosity: Capillary tube (Ostwald / Ubbelohde) method; for speed of sound: Sing-around technique in a fixed-path interferometer; for mass density: Vibrating tube method

CCOCCOCCO [3,6-dioxa-1-octanol] + CCCCCCCCCCO
Settings | mass density [kg/m3] | speed of sound [m/s] | viscosity [mPa·s]
293.15 K, x1 = 0.0607 | 836.419 | 1394.1 | 11.4
293.15 K, x1 = 0.109 | 841.997 | 1392.3 | 10.28
293.15 K, x1 = 0.1561 | 847.628 | 1390.6 | 9.367
293.15 K, x1 = 0.2105 | 854.439 | 1388.9 | 8.743
293.15 K, x1 = 0.2599 | 862.044 | 1387.4 | 7.761
293.15 K, x1 = 0.3089 | 867.859 | 1386.6 | 7.383
293.15 K, x1 = 0.3533 | 874.329 | 1385.8 | 6.336
293.15 K, x1 = 0.4923 | 896.636 | 1385.3 | 5.731
293.15 K, x1 = 0.5986 | 916.267 | 1387.2 | 5.141
293.15 K, x1 = 0.7153 | 940.786 | 1392.6 | 4.525
293.15 K, x1 = 0.7918 | 959.008 | 1398.6 | 4.186
293.15 K, x1 = 0.901 | 988.518 | 1412.6 | 3.899
293.15 K, x1 = 1 | – | – | 3.626
298.15 K, x1 = 0.0607 | 832.969 | 1377 | 9.658
298.15 K, x1 = 0.109 | 838.521 | 1375.3 | 8.774
298.15 K, x1 = 0.1561 | 844.112 | 1373.6 | 8.059
298.15 K, x1 = 0.2105 | 850.88 | 1371.8 | 7.574
298.15 K, x1 = 0.2599 | 858.441 | 1370.5 | 6.868
298.15 K, x1 = 0.3089 | 864.217 | 1369.6 | 6.353
298.15 K, x1 = 0.3533 | 870.65 | 1368.9 | 6.008
298.15 K, x1 = 0.4923 | 892.825 | 1368.4 | 5.027
298.15 K, x1 = 0.5986 | 912.348 | 1370.3 | 4.479
298.15 K, x1 = 0.7153 | 936.739 | 1375.7 | 4.005
298.15 K, x1 = 0.7918 | 954.872 | 1381.7 | 3.729
298.15 K, x1 = 0.901 | 984.244 | 1395.6 | 3.449
298.15 K, x1 = 1 | – | – | 3.278
303.15 K, x1 = 0.0607 | 829.51 | 1360.1 | 8.114
303.15 K, x1 = 0.109 | 835.031 | 1358.4 | 7.312
303.15 K, x1 = 0.1561 | 840.589 | 1356.8 | 6.739
303.15 K, x1 = 0.2105 | 847.315 | 1355.1 | 6.387
303.15 K, x1 = 0.2599 | 854.826 | 1353.7 | 5.858
303.15 K, x1 = 0.3089 | 860.567 | 1352.8 | 5.366
303.15 K, x1 = 0.3533 | 866.962 | 1352.1 | 5.083
303.15 K, x1 = 0.4923 | 889.005 | 1351.7 | 4.338
303.15 K, x1 = 0.5986 | 908.42 | 1353.7 | 3.859
303.15 K, x1 = 0.7153 | 932.679 | 1358.9 | 3.458
303.15 K, x1 = 0.7918 | 950.728 | 1364.9 | 3.235
303.15 K, x1 = 0.901 | 979.965 | 1378.8 | 3.021
303.15 K, x1 = 1 | – | – | 2.862
308.15 K, x1 = 0.0607 | 826.037 | 1343.3 | 6.698
308.15 K, x1 = 0.109 | 831.525 | 1341.6 | 6.116
308.15 K, x1 = 0.1561 | 837.051 | 1340.1 | 5.838
308.15 K, x1 = 0.2105 | 843.734 | 1338.4 | 5.38
308.15 K, x1 = 0.2599 | 851.204 | 1336.9 | 4.826
308.15 K, x1 = 0.3089 | 856.908 | 1336.2 | 4.528
308.15 K, x1 = 0.3533 | 863.255 | 1335.5 | 4.319
308.15 K, x1 = 0.4923 | 885.17 | 1335.1 | 3.697
308.15 K, x1 = 0.5986 | 904.477 | 1337 | 3.346
308.15 K, x1 = 0.7153 | 928.613 | 1342.4 | 2.978
308.15 K, x1 = 0.7918 | 946.566 | 1348.3 | 2.817
308.15 K, x1 = 0.901 | 975.664 | 1362.1 | 2.67
308.15 K, x1 = 1 | – | – | 2.507
